Reference: patent US20250025482A1, “USE OF C[…] THE TREATMENT OF EPILEPSY” (GW Research Limited, priority 2021, published 2025)

Assays:
Type in all cases: in vivo, human (patients)
[1] = test system: Patients aged 1-2 years old with Dravet Syndrome (DS); experiment: Expanded access treatment with highly purified CBD extract, seizure frequency, Patient 1 (Dravet Syndrome); set-up: key to Seizure frequency, Clonic / Seizure frequency, Tonic-clonic / Seizure frequency, Focal with impairment: number of seizures per day; settings: for Seizure frequency, Focal with impairment / Seizure frequency, Tonic-clonic: baseline 3.0; for Seizure frequency, Clonic: baseline 4.0
Description: (§1) Example 1 below describes the use of a highly purified cannabis extract comprising cannabidiol (CBD) in an expanded access treatment program in children with TRE.
(§2) Patients aged 1-2 years old with Dravet Syndrome (DS), Lennox-Gastaut Syndrome (LGS), or Tuberous Sclerosis Complex (TSC) were administered a highly purified extract of cannabidiol (CBD) obtained from a cannabis plant […].
(§3) The highly purified CBD extract (greater than 98% CBD w/w) was administered in a formulation described herein at a starting dose of 5 mg/kg/day in addition to their baseline anti-epileptic drug (AED) regimen.
(§4) The starting dose of the patients was increased from 5 mg/kg/day to 10 mg/kg/day after one week of administering the first dose of CBD.
(§5) All patients were taking at least two concomitant anti-epileptic drugs. These included clobazam; levetiracetam; topiramate; vigabatrin; phenobarbital; and lacosamide.
(§6) Prior to treatment with CBD, the number of seizures for each patient at baseline was recorded. During the course of treatment, the number of seizures that each patient experienced per day was recorded. Table 9 provides information on the demographics, seizure type, and concomitant anti-epileptic drugs (AED) for each patient that was administered the highly purified extract of CBD.

[2] = test system: Patients aged 1-2 years old with Lennox-Gastaut Syndrome (LGS); experiment: Expanded access treatment with highly purified CBD extract, seizure frequency, Patient 2 (Lennox-Gastaut Syndrome); set-up: key to Seizure frequency, Clonic / Seizure frequency, Tonic / Seizure frequency, Atonic / Seizure frequency, Absence: number of seizures per day; settings: for Seizure frequency, Tonic: baseline 4.0; for Seizure frequency, Absence: baseline 120.0; for Seizure frequency, Clonic: baseline 200.0; for Seizure frequency, Atonic: baseline 300.0
Description: as §1, §2, §3, §4, §5, §6

[3] = test system: Patients aged 1-2 years old with Tuberous Sclerosis Complex (TSC); experiment: Expanded access treatment with highly purified CBD extract, seizure frequency, Patient 3 (Tuberous Sclerosis Complex); set-up: key to Seizure frequency, Focal with impairment / Seizure frequency, Focal without impairment: number of seizures per day; settings: for Seizure frequency, Focal without impairment / Seizure frequency, Focal with impairment / Seizure frequency, Focal with secondary generalisation: Patient 3, Tuberous Sclerosis; for Seizure frequency, Focal without impairment: baseline 0.0; for Seizure frequency, Focal with impairment: baseline 25.4; for Seizure frequency, Focal with secondary generalisation: baseline 63.0
Description: as §1, §2, §3, §4, §5, §6

[4] = test system: seizures in patients; experiment: Onset of effect of seizure reduction during CBD titration; settings: patients receiving 5 mg/kg/day; e.g., at 2, 3, 4, 5, or 6 days
[5] = Patient 1, Dravet Syndrome, 2 weeks, dose CBD 11.7 mg/kg/day
[6] = Patient 1, Dravet Syndrome, 4 weeks, dose CBD 19.2 mg/kg/day
[7] = Patient 1, Dravet Syndrome, 8 weeks, dose CBD 24.3 mg/kg/day
[8] = Patient 1, Dravet Syndrome, 16 weeks, dose CBD 25.4 mg/kg/day
[9] = Patient 1, Dravet Syndrome, 24 weeks, dose CBD 24.8 mg/kg/day
[10] = Patient 1, Dravet Syndrome, 36 weeks, dose CBD 23.0 mg/kg/day
[11] = Patient 1, Dravet Syndrome, 48 weeks, dose CBD 22.6 mg/kg/day
[12] = Patient 1, Dravet Syndrome, over the treatment period
[13] = Patient 2, Lennox-Gastaut Syndrome, 4 weeks, dose CBD 25.0 mg/kg/day
[14] = Patient 2, Lennox-Gastaut Syndrome, 8 weeks, dose CBD 50.0 mg/kg/day
[15] = Patient 2, Lennox-Gastaut Syndrome, 12 weeks, dose CBD 49.6 mg/kg/day
[16] = Patient 2, Lennox-Gastaut Syndrome, 24 weeks, dose CBD 49.0 mg/kg/day
[17] = Patient 2, Lennox-Gastaut Syndrome, 36 weeks, dose CBD 48.6 mg/kg/day
[18] = Patient 2, Lennox-Gastaut Syndrome, 60 weeks, dose CBD 3.7 mg/kg/day
[19] = Patient 2, Lennox-Gastaut Syndrome, 72 weeks, dose CBD 50.0 mg/kg/day
[20] = Patient 2, Lennox-Gastaut Syndrome, over the treatment period
[21] = Patient 3, Tuberous Sclerosis Complex, over the treatment period
[22] = 2 weeks, dose CBD 10.0 mg/kg/day
[23] = 4 weeks, dose CBD 20.0 mg/kg/day
[24] = 8 weeks, dose CBD 15.0 mg/kg/day
[25] = 16 weeks, dose CBD 15.0 mg/kg/day
[26] = 24 weeks, dose CBD 13.0 mg/kg/day
[27] = 36 weeks, dose CBD 13.0 mg/kg/day
[28] = 48 weeks, dose CBD 13.0 mg/kg/day
[29] = 60 weeks, dose CBD 11.5 mg/kg/day
[30] = 84 weeks, dose CBD 27.0 mg/kg/day
[31] = 96 weeks, dose CBD 22.0 mg/kg/day
[32] = 108 weeks, dose CBD 13.0 mg/kg/day
[33] = 120 weeks, dose CBD 29.0 mg/kg/day
[34] = 144 weeks, dose CBD 35.0 mg/kg/day

SMILES: C=C(C)[C@@H]1CCC(C)=C[C@H]1c1c(O)cc(CCCCC)cc1O [CBD, Cannabidiol]
- relief from clonic seizures after treatment ([1]; Patient 1): complete relief
- relief from focal seizures with impairment after treatment ([1]; Patient 1): complete relief
- Seizure frequency, Focal with impairment [1, 5]: 0.0
- Seizure frequency, Tonic-clonic [1, 5]: 4.0
- Seizure frequency, Clonic [1, 5]: 6.0
- Seizure frequency, Focal with impairment [1, 6]: 0.0
- Seizure frequency, Tonic-clonic [1, 6]: 2.0
- Seizure frequency, Clonic [1, 6]: 4.0
- Seizure frequency, Focal with impairment [1, 7]: 0.0
- Seizure frequency, Tonic-clonic [1, 7]: 0.0
- Seizure frequency, Clonic [1, 7]: 2.0
- Seizure frequency, Focal with impairment [1, 8]: 0.0
- Seizure frequency, Tonic-clonic [1, 8]: 0.0
- Seizure frequency, Clonic [1, 8]: 2.6
- Seizure frequency, Focal with impairment [1, 9]: 0.0
- Seizure frequency, Tonic-clonic [1, 9]: 1.6
- Seizure frequency, Clonic [1, 9]: 0.8
- Seizure frequency, Focal with impairment [1, 10]: 0.0
- Seizure frequency, Tonic-clonic [1, 10]: 6.9
- Seizure frequency, Clonic [1, 10]: 0.0
- Seizure frequency, Focal with impairment [1, 11]: 0.0
- Seizure frequency, Tonic-clonic [1, 11]: 6.5
- Seizure frequency, Clonic [1, 11]: 0.0
- reduction in clonic seizures [1, 12]: 100%
- reduction in focal seizures with impairment [1, 12]: 100%
- relief from clonic seizures after treatment ([2]; Patient 2): complete relief
- Seizure frequency, Tonic [2, 13]: 116.0
- Seizure frequency, Absence [2, 13]: 116.0
- Seizure frequency, Clonic [2, 13]: 64.0
- Seizure frequency, Atonic [2, 13]: 388.0
- Seizure frequency, Tonic [2, 14]: 48.0
- Seizure frequency, Absence [2, 14]: 78.0
- Seizure frequency, Clonic [2, 14]: 40.0
- Seizure frequency, Atonic [2, 14]: 564.0
- Seizure frequency, Tonic [2, 15]: 116.0
- Seizure frequency, Absence [2, 15]: 140.0
- Seizure frequency, Clonic [2, 15]: 40.0
- Seizure frequency, Atonic [2, 15]: 300.0
- Seizure frequency, Tonic [2, 16]: 116.0
- Seizure frequency, Absence [2, 16]: 140.0
- Seizure frequency, Clonic [2, 16]: 40.0
- Seizure frequency, Atonic [2, 16]: 280.0
- Seizure frequency, Tonic [2, 17]: 116.0
- Seizure frequency, Absence [2, 17]: 140.0
- Seizure frequency, Clonic [2, 17]: 40.0
- Seizure frequency, Atonic [2, 17]: 280.0
- Seizure frequency, Tonic [2, 18]: 1.0
- Seizure frequency, Absence [2, 18]: 40.0
- Seizure frequency, Clonic [2, 18]: 0.0
- Seizure frequency, Atonic [2, 18]: 1.0
- Seizure frequency, Tonic [2, 19]: 20.0
- Seizure frequency, Absence [2, 19]: 0.0
- Seizure frequency, Clonic [2, 19]: 0.0
- Seizure frequency, Atonic [2, 19]: 0.0
- reduction in absence seizures [2, 20]: 100%
- reduction in atonic seizures [2, 20]: 100%
- reduction in clonic seizures [2, 20]: 100%
- relief from focal seizures with impairment after treatment ([3]; Patient 3): complete relief
- reduction in focal seizures with impairment [3, 21]: 100%
- reduction in focal seizures with secondary generalisation [3, 21]: 100%
- Seizure frequency, Focal without impairment [3, 22]: 0.0
- Seizure frequency, Focal with impairment [3, 22]: 20.0
- Seizure frequency, Focal with secondary generalisation [3, 22]: 50.0
- Seizure frequency, Focal without impairment [3, 23]: 0.0
- Seizure frequency, Focal with impairment [3, 23]: 22.0
- Seizure frequency, Focal with secondary generalisation [3, 23]: 61.0
- Seizure frequency, Focal without impairment [3, 24]: 0.0
- Seizure frequency, Focal with impairment [3, 24]: 15.4
- Seizure frequency, Focal with secondary generalisation [3, 24]: 109.1
- Seizure frequency, Focal without impairment [3, 25]: 0.0
- Seizure frequency, Focal with impairment [3, 25]: 0.6
- Seizure frequency, Focal with secondary generalisation [3, 25]: 46.2
- Seizure frequency, Focal without impairment [3, 26]: 0.0
- Seizure frequency, Focal with impairment [3, 26]: 0.0
- Seizure frequency, Focal with secondary generalisation [3, 26]: 58.1
- Seizure frequency, Focal without impairment [3, 27]: 0.0
- Seizure frequency, Focal with impairment [3, 27]: 0.0
- Seizure frequency, Focal with secondary generalisation [3, 27]: 0.0
- Seizure frequency, Focal without impairment [3, 28]: 0.0
- Seizure frequency, Focal with impairment [3, 28]: 0.0
- Seizure frequency, Focal with secondary generalisation [3, 28]: 14.8
- Seizure frequency, Focal without impairment [3, 29]: 0.0
- Seizure frequency, Focal with impairment [3, 29]: 71.3
- Seizure frequency, Focal with secondary generalisation [3, 29]: 0.0
- Seizure frequency, Focal without impairment [3, 30]: 0.0
- Seizure frequency, Focal with impairment [3, 30]: 62.5
- Seizure frequency, Focal with secondary generalisation [3, 30]: 0.0
- Seizure frequency, Focal without impairment [3, 31]: 0.0
- Seizure frequency, Focal with impairment [3, 31]: 14.8
- Seizure frequency, Focal with secondary generalisation [3, 31]: 0.0
- Seizure frequency, Focal without impairment [3, 32]: 10.8
- Seizure frequency, Focal with impairment [3, 32]: 0.3
- Seizure frequency, Focal with secondary generalisation [3, 32]: 0.0
- Seizure frequency, Focal without impairment [3, 33]: 11.4
- Seizure frequency, Focal with impairment [3, 33]: 0.0
- Seizure frequency, Focal with secondary generalisation [3, 33]: 0.0
- Seizure frequency, Focal without impairment [3, 34]: 9.8
- Seizure frequency, Focal with impairment [3, 34]: 0.0
- Seizure frequency, Focal with secondary generalisation [3, 34]: 0.0
- onset of effect of seizure reduction [4]: within one week
